Our source for the T/C values is PubChem BioAssay AID328 (DTP/NCI, 2004).

Several values for one entry are separate records, joined by “and”; a condition that tells them apart may be missing. Equal entries are not always repeated. Toxic doses and inconclusive results are not listed.

The test system of this experiment is BDF1 mice, P388 leukemia ip, median survival T/C. As to the kind of experiment: NCI In Vivo Anticancer Drug Screen. Data for tumor model P388 Leukemia (intraperitoneal) in B6D2F1 (BDF1) mice. Particulars: endpoint: median survival time, higher = longer survival. Put shortly: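 Antitumour effect was judged in vivo: survival in drug-treated mice, normalised to that of vehicle-dosed controls, gives the reported T/C.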

The mark [1] stands for this setting: dose: 50.0 mg/kg/injection, schedule: Q01DX009 (ip), vehicle: saline with Tween-80.
Setting [2] is: dose: 100.0 mg/kg/injection, schedule: Q01DX009 (ip), vehicle: saline with Tween-80.
The mark [3] stands for this setting: dose: 200.0 mg/kg/injection, schedule: Q01DX009 (ip), vehicle: saline with Tween-80.
The mark [4] stands for this setting: dose: 100.0 mg/kg/injection, schedule: Q04DX003 (ip), vehicle: saline.
Where [5] appears, read: dose: 200.0 mg/kg/injection, schedule: Q04DX003 (ip), vehicle: saline.
The mark [6] stands for this setting: dose: 400.0 mg/kg/injection, schedule: Q04DX003 (ip), vehicle: saline.
Where [7] appears, read: dose: 50.0 mg/kg/injection, schedule: Q04DX003 (ip), vehicle: saline.
Where [8] appears, read: dose: 50.0 mg/kg/injection, schedule: Q01DX009 (ip), vehicle: Klucel (hydroxypropylcellulose) (HPC).
Where [9] appears, read: dose: 200.0 mg/kg/injection, schedule: Q01DX009 (ip), vehicle: Klucel (hydroxypropylcellulose) (HPC).
[10] abbreviates: dose: 10.0 mg/kg/injection, schedule: Q01DX009 (ip), vehicle: Klucel (hydroxypropylcellulose) (HPC).
[11] abbreviates: dose: 12.5 mg/kg/injection, schedule: Q04DX003 (ip), vehicle: saline with Tween-80.

On to `CNc1cc(C(C)C)ccc1C`, for which the T/C was 104 % of control (dose: 32.5 mg/kg/injection, schedule: Q01DX009 (sc), vehicle: olive oil, sesame oil, peanut oil); 104 % of control (dose: 65.0 mg/kg/injection, schedule: Q01DX009 (sc), vehicle: olive oil, sesame oil, peanut oil); 104 % of control (dose: 100.0 mg/kg/injection, schedule: Q04DX003 (sc), vehicle: olive oil, sesame oil, peanut oil); 100 % of control (dose: 130.0 mg/kg/injection, schedule: Q01DX009 (sc), vehicle: olive oil, sesame oil, peanut oil); 109 % of control (dose: 200.0 mg/kg/injection, schedule: Q04DX003 (sc), vehicle: olive oil, sesame oil, peanut oil); 118 % of control (dose: 400.0 mg/kg/injection, schedule: Q04DX003 (sc), vehicle: olive oil, sesame oil, peanut oil).
On to `COc1ccc(C2=C/C(=C3/C(=O)C=C(C)OC3=O)SS2)cc1`, for which the T/C under setting [1] is 90 % of control, the T/C under setting [2] is 92 % of control and the T/C under setting [3] is 97 % of control.
Turning to `Cc1cc(O)c2c(c1O)C(=O)c1ccccc1C2=O`, the T/C is 91 % of control under setting [4], 95 % of control under setting [5] and 95 % of control under setting [6].
For the molecule `CC(=O)OCC1OC(n2ccc(N)nc2=O)C(OC(C)=O)C1OC(C)=O` (centres undefined), the T/C was 170 % of control under setting [1]; 188 % of control under setting [2]; 177 % of control (dose: 177.0 mg/kg/injection, schedule: Q04DX003 (ip), vehicle: saline); 106 % of control under setting [3]; 181 % of control and 195 % of control (dose: 266.0 mg/kg/injection, schedule: Q04DX003 (ip), vehicle: saline); 187 % of control and 204 % of control under setting [6]. Besides, the T/C (dose: 600.0 mg/kg/injection, schedule: Q04DX003 (ip), vehicle: saline) was 263 % of control and 200 % of control.
Take `C1CSCCSCCCSCCSC1`: the T/C is 98 % of control (dose: 25.0 mg/kg/injection, schedule: Q01DX009 (ip), vehicle: saline with Tween-80); 102 % of control under setting [1]; 118 % of control under setting [2].
In the case of `CCCCCCCC/C=C\CCCCCCCC(=O)OC`, the T/C by setting is: (dose: 100.0 mg/kg/injection, schedule: Q04DX003 (ip), vehicle: saline with Tween-80) 96 % of control; under setting [3], 120 % of control; (dose: 200.0 mg/kg/injection, schedule: Q04DX003 (ip), vehicle: saline with Tween-80) 103 % of control; (dose: 400.0 mg/kg/injection, schedule: Q04DX003 (ip), vehicle: saline with Tween-80) 88 % of control.
Regarding `CN(C)C(=S)S`, the T/C reads like this: under setting [7], 103 % of control; under setting [4], 103 % of control; under setting [5], 105 % of control; under setting [6], 117 % of control.
For the molecule `OCC1CC[N-]CC1.OCC1CC[N-]CC1.[Cl][Pt+2]([Cl])([Cl])[Cl]`, the T/C is 104 % of control (dose: 25.0 mg/kg/injection, schedule: Q04DX003 (ip), vehicle: saline); 101 % of control under setting [7]; 118 % of control under setting [4].
As to `O=C(O)/C=C\C(=O)Nc1ccccc1`, the T/C reads like this: (dose: 6.25 mg/kg/injection, schedule: Q01DX009 (ip), vehicle: Klucel (hydroxypropylcellulose) (HPC)) 105 % of control; (dose: 12.5 mg/kg/injection, schedule: Q01DX009 (ip), vehicle: Klucel (hydroxypropylcellulose) (HPC)) 94 % of control; (dose: 25.0 mg/kg/injection, schedule: Q01DX009 (ip), vehicle: Klucel (hydroxypropylcellulose) (HPC)) 94 % of control; under setting [8], 115 % of control; under setting [9], 86 % of control; (dose: 400.0 mg/kg/injection, schedule: Q01DX009 (ip), vehicle: Klucel (hydroxypropylcellulose) (HPC)) 95 % of control.
As to `CCCCCCCCCCCCCCCCOc1ccc(Cl)cc1`, the T/C is 109 % of control (dose: 25.0 mg/kg/injection, schedule: Q01DX001 (ip), vehicle: saline sonified) and 100 % of control (dose: 50.0 mg/kg/injection, schedule: Q01DX001 (ip), vehicle: saline sonified).
Regarding `Nc1nc(Cl)c(C=O)c(Cl)n1`, the T/C under setting [1] was 241 % of control.
Consider `O=c1[nH]c2nc(Cl)c(Cl)nc2[nH]1`, for which the T/C reads like this: under setting [7], 113 % of control; under setting [4], 106 % of control; under setting [5], 111 % of control.
For the molecule `[Cl][Pt+2][Cl].[NH-]C1CCCC1.[NH-]C1CCCC1`, the T/C was 96 % of control under setting [10]; 107 % of control (dose: 20.0 mg/kg/injection, schedule: Q01DX009 (ip), vehicle: Klucel (hydroxypropylcellulose) (HPC)); 112 % of control (dose: 40.0 mg/kg/injection, schedule: Q01DX009 (ip), vehicle: Klucel (hydroxypropylcellulose) (HPC)); 117 % of control (dose: 80.0 mg/kg/injection, schedule: Q01DX009 (ip), vehicle: Klucel (hydroxypropylcellulose) (HPC)).
For the molecule `CCCC(C)C(C)CC` (centres undefined), the T/C (dose: 6.25 mg/kg/injection, schedule: Q01DX001 (ip), vehicle: saline with Tween-80) is 91 % of control; the T/C (dose: 12.5 mg/kg/injection, schedule: Q01DX001 (ip), vehicle: saline with Tween-80) was 104 % of control; the T/C (dose: 25.0 mg/kg/injection, schedule: Q01DX001 (ip), vehicle: saline with Tween-80) is 116 % of control.
Consider `C[N+](C)(C)CCC[N+](C)(C)C`, for which the T/C is, setting by setting: under setting [4], 100 % of control; (dose: 200.0 mg/kg/injection, schedule: Q01DX006 (ip), vehicle: saline) 114 % of control; under setting [5], 104 % of control; (dose: 300.0 mg/kg/injection, schedule: Q01DX006 (ip), vehicle: saline) 151 % of control; (dose: 400.0 mg/kg/injection, schedule: Q01DX006 (ip), vehicle: saline) 94 % of control; under setting [6], 93 % of control.
`NC(CC(=O)CCl)C(=O)O` (centres undefined): the T/C (dose: 8.25 mg/kg/injection, schedule: Q04DX003 (ip), vehicle: saline with Tween-80) was 154 % of control; the T/C (dose: 12.5 mg/kg/injection, schedule: Q04DX003 (ip), vehicle: Klucel (hydroxypropylcellulose) (HPC)) was 165 % of control; the T/C under setting [11] is 172 % of control; the T/C (dose: 18.75 mg/kg/injection, schedule: Q04DX003 (ip), vehicle: saline with Tween-80) was 109 % of control; the T/C (dose: 25.0 mg/kg/injection, schedule: Q04DX003 (ip), vehicle: Klucel (hydroxypropylcellulose) (HPC)) was 165 % of control.
As for `Nc1cc(N)cc(Cc2ccccc2)c1`, the T/C is, setting by setting: under setting [8], 112 % of control; (dose: 100.0 mg/kg/injection, schedule: Q01DX009 (ip), vehicle: Klucel (hydroxypropylcellulose) (HPC)) 116 % of control; under setting [9], 116 % of control.
As to `COc1cc(C=Nc2cccc(Br)c2)ccc1N(CCCl)CCCl`, the T/C runs as follows: (dose: 5.5 mg/kg/injection, schedule: Q04DX003 (ip), vehicle: saline with Tween-80) 159 % of control; (dose: 8.3 mg/kg/injection, schedule: Q04DX003 (ip), vehicle: saline with Tween-80) 177 % of control; under setting [11], 190 % of control; (dose: 25.0 mg/kg/injection, schedule: Q04DX003 (ip), vehicle: other) 250 % of control; (dose: 100.0 mg/kg/injection, schedule: Q01DX009 (ip), vehicle: saline sonified) 90 % of control.
In the case of `CCc1cc2c(cc1C(=O)/C=C\C(=O)O)C(C)(C)CCC2(C)C`, the T/C by setting is: (dose: 2.5 mg/kg/injection, schedule: Q01DX009 (ip), vehicle: Klucel (hydroxypropylcellulose) (HPC)) 102 % of control; (dose: 5.0 mg/kg/injection, schedule: Q01DX009 (ip), vehicle: Klucel (hydroxypropylcellulose) (HPC)) 99 % of control; under setting [10], 100 % of control.
